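Where inhibition never reached the appropriate level, the endpoint shown equals the highest concentration tested. Otherwise, values were interpolated linearly from a five-concentration, 48-hour dose response in 96-well plates. Definition used: TGI = concentration required for complete inhibition of growth.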
Columns and labels:
Assay in all cases: NCI tumour cell line growth inhibition, 48 h
786-0 renal = test system: 786-0 renal
A498 renal = test system: A498 renal
A549 NSCLC = test system: A549 NSCLC
ACHN renal = test system: ACHN renal
BT-549 breast = test system: BT-549 breast
CAKI-1 renal = test system: CAKI-1 renal
CCRF-CEM leukemia = test system: CCRF-CEM leukemia
COLO 205 colon = test system: COLO 205 colon
DU-145 prostate = test system: DU-145 prostate
EKVX NSCLC = test system: EKVX NSCLC
HCC-2998 colon = test system: HCC-2998 colon
HCT-116 colon = test system: HCT-116 colon
HCT-15 colon = test system: HCT-15 colon
HL-60(TB) leukemia = test system: HL-60(TB) leukemia
HOP-92 NSCLC = test system: HOP-92 NSCLC
HS 578T breast = test system: HS 578T breast
HT29 colon = test system: HT29 colon
IGROV1 ovarian = test system: IGROV1 ovarian
K-562 leukemia = test system: K-562 leukemia
KM12 colon = test system: KM12 colon
LOX IMVI melanoma = test system: LOX IMVI melanoma
M14 melanoma = test system: M14 melanoma
MALME-3M melanoma = test system: MALME-3M melanoma
MCF7 breast = test system: MCF7 breast
MDA-MB-231 breast = test system: MDA-MB-231 breast
MDA-MB-435 = test system: MDA-MB-435
MOLT-4 leukemia = test system: MOLT-4 leukemia
NCI-H226 lung = test system: NCI-H226 lung
NCI-H23 lung = test system: NCI-H23 lung
NCI-H460 lung = test system: NCI-H460 lung
NCI-H522 lung = test system: NCI-H522 lung
NCI/ADR-RES ovarian = test system: NCI/ADR-RES ovarian
OVCAR-3 ovarian = test system: OVCAR-3 ovarian
OVCAR-4 ovarian = test system: OVCAR-4 ovarian
OVCAR-5 ovarian = test system: OVCAR-5 ovarian
OVCAR-8 ovarian = test system: OVCAR-8 ovarian
PC-3 prostate = test system: PC-3 prostate
RPMI-8226 leukemia = test system: RPMI-8226 leukemia
SF-268 CNS = test system: SF-268 CNS
SF-295 CNS = test system: SF-295 CNS
SF-539 CNS = test system: SF-539 CNS
SK-MEL-2 melanoma = test system: SK-MEL-2 melanoma
SK-MEL-28 melanoma = test system: SK-MEL-28 melanoma
SK-MEL-5 melanoma = test system: SK-MEL-5 melanoma
SK-OV-3 ovarian = test system: SK-OV-3 ovarian
SN12C renal = test system: SN12C renal
SNB-19 CNS = test system: SNB-19 CNS
SNB-75 CNS = test system: SNB-75 CNS
SW-620 colon = test system: SW-620 colon
T-47D breast = test system: T-47D breast
TK-10 renal = test system: TK-10 renal
U251 CNS = test system: U251 CNS
UACC-257 melanoma = test system: UACC-257 melanoma
UACC-62 melanoma = test system: UACC-62 melanoma
UO-31 renal = test system: UO-31 renal
HOP-62 NSCLC = test system: HOP-62 NSCLC
RXF 393 renal = test system: RXF 393 renal

## Cc1cccc(C)c1NC(=O)/C(Cc1nc2ccc([N+](=O)[O-])cc2[nH]c1=O)=N\NC(N)=O
786-0 renal
  TGI: > 100 µM
A498 renal
  TGI: > 100 µM
A549 NSCLC
  TGI: > 100 µM
ACHN renal
  TGI: > 100 µM
BT-549 breast
  TGI: > 100 µM
CAKI-1 renal
  TGI: > 100 µM
CCRF-CEM leukemia
  TGI: > 100 µM
COLO 205 colon
  TGI: > 100 µM
DU-145 prostate
  TGI: > 100 µM
EKVX NSCLC
  TGI: > 100 µM
HCC-2998 colon
  TGI: > 100 µM
HCT-116 colon
  TGI: > 100 µM
HCT-15 colon
  TGI: > 100 µM
HL-60(TB) leukemia
  TGI: > 100 µM
HOP-92 NSCLC
  TGI: > 100 µM
HS 578T breast
  TGI: > 100 µM
HT29 colon
  TGI: > 100 µM
IGROV1 ovarian
  TGI: > 100 µM
K-562 leukemia
  TGI: > 100 µM
KM12 colon
  TGI: > 100 µM
LOX IMVI melanoma
  TGI: > 100 µM
M14 melanoma
  TGI: > 100 µM
MALME-3M melanoma
  TGI: > 100 µM
MCF7 breast
  TGI: > 100 µM
MDA-MB-231 breast
  TGI: > 100 µM
MDA-MB-435
  TGI: > 100 µM
MOLT-4 leukemia
  TGI: > 100 µM
NCI-H226 lung
  TGI: > 100 µM
NCI-H23 lung
  TGI: > 100 µM
NCI-H460 lung
  TGI: > 100 µM
NCI-H522 lung
  TGI: > 100 µM
NCI/ADR-RES ovarian
  TGI: > 100 µM
OVCAR-3 ovarian
  TGI: > 100 µM
OVCAR-4 ovarian
  TGI: > 100 µM
OVCAR-5 ovarian
  TGI: > 100 µM
OVCAR-8 ovarian
  TGI: > 100 µM
PC-3 prostate
  TGI: > 100 µM
RPMI-8226 leukemia
  TGI: > 100 µM
SF-268 CNS
  TGI: > 100 µM
SF-295 CNS
  TGI: > 100 µM
SF-539 CNS
  TGI: > 100 µM
SK-MEL-2 melanoma
  TGI: > 100 µM
SK-MEL-28 melanoma
  TGI: > 100 µM
SK-MEL-5 melanoma
  TGI: > 100 µM
SK-OV-3 ovarian
  TGI: > 100 µM
SN12C renal
  TGI: > 100 µM
SNB-19 CNS
  TGI: > 100 µM
SNB-75 CNS
  TGI: > 100 µM
SW-620 colon
  TGI: > 100 µM
T-47D breast
  TGI: > 100 µM
TK-10 renal
  TGI: > 100 µM
U251 CNS
  TGI: > 100 µM
UACC-257 melanoma
  TGI: > 100 µM
UACC-62 melanoma
  TGI: > 100 µM
UO-31 renal
  TGI: > 100 µM

## C[C@@H]1CCC[C@]2(C)O[C@H]2CC[C@@](C)(O)[C@@H]2CC3=C(CO)C(=O)O[C@H]3[C@H]1O2
786-0 renal
  TGI: > 50 µM
A498 renal
  TGI: > 50 µM
A549 NSCLC
  TGI: > 50 µM
ACHN renal
  TGI: > 50 µM
BT-549 breast
  TGI: > 50 µM
CAKI-1 renal
  TGI: > 50 µM
CCRF-CEM leukemia
  TGI: > 50 µM
COLO 205 colon
  TGI: > 50 µM
DU-145 prostate
  TGI: > 50 µM
EKVX NSCLC
  TGI: > 50 µM
HCC-2998 colon
  TGI: > 50 µM
HCT-116 colon
  TGI: > 50 µM
HCT-15 colon
  TGI: > 50 µM
HL-60(TB) leukemia
  TGI: > 5 µM
HOP-62 NSCLC
  TGI: > 50 µM
HOP-92 NSCLC
  TGI: > 50 µM
HS 578T breast
  TGI: > 50 µM
HT29 colon
  TGI: > 50 µM
IGROV1 ovarian
  TGI: > 50 µM
K-562 leukemia
  TGI: > 50 µM
KM12 colon
  TGI: > 50 µM
LOX IMVI melanoma
  TGI: > 50 µM
M14 melanoma
  TGI: > 50 µM
MCF7 breast
  TGI: > 50 µM
MDA-MB-231 breast
  TGI: > 50 µM
MDA-MB-435
  TGI: > 50 µM
MOLT-4 leukemia
  TGI: > 50 µM
NCI-H226 lung
  TGI: > 50 µM
NCI-H23 lung
  TGI: > 50 µM
NCI-H460 lung
  TGI: > 50 µM
NCI-H522 lung
  TGI: > 50 µM
NCI/ADR-RES ovarian
  TGI: > 50 µM
OVCAR-3 ovarian
  TGI: > 50 µM
OVCAR-4 ovarian
  TGI: > 50 µM
OVCAR-5 ovarian
  TGI: > 50 µM
OVCAR-8 ovarian
  TGI: > 50 µM
PC-3 prostate
  TGI: > 50 µM
RPMI-8226 leukemia
  TGI: > 50 µM
RXF 393 renal
  TGI: > 50 µM
SF-268 CNS
  TGI: > 50 µM
SF-295 CNS
  TGI: > 50 µM
SF-539 CNS
  TGI: > 50 µM
SK-MEL-2 melanoma
  TGI: > 50 µM
SK-MEL-28 melanoma
  TGI: > 50 µM
SK-MEL-5 melanoma
  TGI: > 50 µM
SK-OV-3 ovarian
  TGI: > 50 µM
SN12C renal
  TGI: > 50 µM
SNB-19 CNS
  TGI: > 50 µM
SNB-75 CNS
  TGI: > 50 µM
SW-620 colon
  TGI: > 50 µM
T-47D breast
  TGI: > 50 µM
TK-10 renal
  TGI: > 50 µM
U251 CNS
  TGI: > 50 µM
UACC-257 melanoma
  TGI: > 50 µM
UACC-62 melanoma
  TGI: > 50 µM
UO-31 renal
  TGI: > 50 µM

Source: PubChem BioAssay (NCI)
